The results in this text go back to PubChem BioAssay (NCI).

Test systems include NCI-H226 lung; 786-0 renal; RXF 393 renal; UACC-257 melanoma; NCI-H23 lung; CCRF-CEM leukemia; NCI/ADR-RES ovarian; T-47D breast; PC-3 prostate; SK-MEL-5 melanoma.
Holding throughout (assay): NCI anticancer screen, dose series, 48 h

Where “and” joins values, the source holds several entries; their conditions need not be identical. Equal values may be shown once.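 Five concentrations, 48 hours, 96-well plates. GI50 is the concentration that inhibits growth by half. TGI: concentration producing complete growth inhibition.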

For the compound `Cc1cc(S(=O)(=O)Nc2nc3cc(-c4ccsc4)sc3c(=O)n2N)c(S)cc1Cl`, the GI50 is 49.7 µM in the test with NCI-H226 lung; 90.9 µM in the test on 786-0 renal; above 100 µM with RXF 393 renal; above 100 µM with UACC-257 melanoma; above 100 µM in the test with NCI-H23 lung; 64.7 µM in the test on CCRF-CEM leukemia. In addition, the GI50 in the test on NCI/ADR-RES ovarian is 50.6 µM; in the test with T-47D breast, 28.8 µM; in the test with PC-3 prostate, 47.6 µM; in the test with SK-MEL-5 melanoma, 38.4 µM. Besides, the TGI in the test on NCI-H226 lung, in the test on 786-0 renal, with RXF 393 renal, in the test on UACC-257 melanoma, in the test on NCI-H23 lung and with CCRF-CEM leukemia was above 100 µM each time. For the same compound, the TGI in the test with NCI/ADR-RES ovarian, in the test with T-47D breast, in the test on PC-3 prostate and in the test with SK-MEL-5 melanoma was above 100 µM throughout.
Turning to `N#CC1CCc2c(c(-c3cn[nH]c3C(F)(F)F)nc3c(F)cc4[nH]ncc4c23)C1` (stereo not given), the GI50 in the test with NCI-H226 lung was 16 µM; with 786-0 renal, 10.9 µM; in the test with RXF 393 renal, 2.39 µM; with UACC-257 melanoma, 12.9 µM; in the test on NCI-H23 lung, 5.36 µM; in the test with CCRF-CEM leukemia it was 4.06 µM. The GI50 was above 100 µM in the test on NCI/ADR-RES ovarian, 3.06 µM in the test on T-47D breast, 9.19 µM in the test on PC-3 prostate and 2.83 µM with SK-MEL-5 melanoma. Besides, the TGI with NCI-H226 lung is above 100 µM; in the test with 786-0 renal, 59.4 µM; in the test with RXF 393 renal, 7.3 µM; in the test on UACC-257 melanoma, 74.5 µM; in the test on NCI-H23 lung it was 28.4 µM; in the test on CCRF-CEM leukemia, above 100 µM. The TGI was above 100 µM in the test with NCI/ADR-RES ovarian, 26.1 µM in the test with T-47D breast, above 100 µM in the test on PC-3 prostate and 9.79 µM in the test with SK-MEL-5 melanoma.
`CC(C)(F)C[C@H](N[C@@H](c1ccc(-c2ccc(S(C)(=O)=O)cc2)cc1)C(F)(F)F)C(=O)NC1(C#N)CC1`: the GI50 with NCI-H226 lung was 16.4 µM and 23.6 µM; in the test on 786-0 renal it was 9.02 µM and 26.2 µM; in the test with RXF 393 renal it was 7.14 µM and 20.5 µM; in the test on UACC-257 melanoma, > 55 µM and 61.8 µM; in the test with NCI-H23 lung, 28.5 µM and 39.9 µM; with CCRF-CEM leukemia, above 100 µM. Moreover, the GI50 in the test with NCI/ADR-RES ovarian is 34.1 µM; with T-47D breast it was 35.7 µM and 99.7 µM; with PC-3 prostate, 36.9 µM and 27.9 µM; in the test on SK-MEL-5 melanoma, > 55 µM and 73.1 µM. The TGI is 55 µM and 63.6 µM in the test on NCI-H226 lung; 55 µM and 87.8 µM in the test with 786-0 renal; 18 µM and 45.2 µM in the test with RXF 393 renal; above 100 µM in the test with UACC-257 melanoma; 55 µM and > 100 µM in the test on NCI-H23 lung; above 100 µM in the test with CCRF-CEM leukemia. Moreover, the TGI in the test with NCI/ADR-RES ovarian is 55 µM; in the test on T-47D breast it was 55 µM and > 100 µM; in the test on PC-3 prostate it was 55 µM and > 100 µM; with SK-MEL-5 melanoma it was above 100 µM.
For the compound `CC(=O)Nc1cc2cc(NS(=O)(=O)c3cc(C(F)(F)F)cc(C(F)(F)F)c3)ccc2oc1=O`, the TGI in the test with NCI-H226 lung is above 100 µM; in the test on 786-0 renal it was above 100 µM; with RXF 393 renal, 0.811 µM; in the test on UACC-257 melanoma it was above 100 µM; with NCI-H23 lung, above 100 µM; with CCRF-CEM leukemia, above 100 µM. Moreover, the TGI in the test on NCI/ADR-RES ovarian, in the test with T-47D breast, in the test with PC-3 prostate and in the test with SK-MEL-5 melanoma was above 100 µM throughout.
In the case of `Cc1ccc(S(=O)(=O)c2ccsc2N)cc1`, the GI50 in the test on NCI-H226 lung was 45.9 µM; with 786-0 renal it was above 100 µM; with RXF 393 renal, 63.9 µM; in the test with UACC-257 melanoma it was above 100 µM; in the test on NCI-H23 lung it was above 100 µM; in the test on CCRF-CEM leukemia, above 100 µM. In addition, the GI50 with NCI/ADR-RES ovarian was above 100 µM; with T-47D breast, above 100 µM; in the test on PC-3 prostate, above 100 µM; in the test with SK-MEL-5 melanoma, 66 µM. Further, the TGI in the test with NCI-H226 lung, in the test on 786-0 renal, with RXF 393 renal, in the test on UACC-257 melanoma, in the test with NCI-H23 lung and in the test on CCRF-CEM leukemia was above 100 µM each time. For the same compound, the TGI in the test on NCI/ADR-RES ovarian, with T-47D breast, in the test on PC-3 prostate and in the test with SK-MEL-5 melanoma was above 100 µM throughout.
`C(#Cc1ccccc1C#Cc1ccccn1)c1ccccn1`: the GI50 with NCI-H226 lung was 16.6 µM; in the test with 786-0 renal it was 18.3 µM; with RXF 393 renal it was 7.71 µM; in the test with UACC-257 melanoma, 19.3 µM; with NCI-H23 lung, 19 µM; with CCRF-CEM leukemia it was 13.8 µM. For the same compound, the GI50 was 5.45 µM in the test with NCI/ADR-RES ovarian, 19.4 µM with T-47D breast, 13.5 µM in the test on PC-3 prostate and 15.5 µM in the test on SK-MEL-5 melanoma. Moreover, the TGI is 37.9 µM in the test with NCI-H226 lung; above 100 µM with 786-0 renal; 24.4 µM with RXF 393 renal; 39.8 µM in the test with UACC-257 melanoma; 46.4 µM with NCI-H23 lung; 38.6 µM with CCRF-CEM leukemia. For the same compound, the TGI was 29.4 µM in the test on NCI/ADR-RES ovarian, 46.3 µM in the test with T-47D breast, 30.2 µM in the test with PC-3 prostate and 30.9 µM in the test with SK-MEL-5 melanoma.
Regarding `C[C@H]1CCC/C=C/[C@@H]2C[C@H](O)C[C@H]2[C@H](O)[C@@H](SC2OC(CO)C(O)C(O)C2O)CC(=O)O1` (stereo not given in full), the GI50 in the test with NCI-H226 lung was 36.2 µM; in the test on 786-0 renal, 25.1 µM; with RXF 393 renal, 20 µM; in the test with UACC-257 melanoma, 44.5 µM; in the test on NCI-H23 lung, 47.9 µM; with CCRF-CEM leukemia, 61.2 µM. Further, the GI50 was 43.3 µM in the test on NCI/ADR-RES ovarian, above 100 µM in the test with T-47D breast, above 100 µM in the test on PC-3 prostate and 16.2 µM in the test with SK-MEL-5 melanoma. In addition, the TGI with NCI-H226 lung was above 100 µM; in the test on 786-0 renal it was 59.9 µM; with RXF 393 renal it was 55.8 µM; with UACC-257 melanoma, above 100 µM; with NCI-H23 lung, above 100 µM; in the test on CCRF-CEM leukemia, above 100 µM. The TGI in the test with NCI/ADR-RES ovarian is above 100 µM; in the test with T-47D breast, above 100 µM; with PC-3 prostate, above 100 µM; with SK-MEL-5 melanoma, 30 µM.
